Assay results from patent US9458203B2, “Integrin-blocking polypeptides and uses thereof” (priority 2011, dated 2016).
Like-named read-outs stand apart in the source and are kept apart here. Ends that are not written are not given here.

What was measured:
melanoma B16F10 = test: transplanted melanoma B16F10 in C57BL/6 black mice
Protocol: Hypodermically injecting polypeptides and other drugs into the left axillary region of mice from the experimental groups respectively while administering only equal quantity of physiological saline to the mice from the negative control group. The total medication period was 14 days, during which cyclophosphamide was administered once every other day, taxol once every three days, low-dose polypeptide twice a day and all other drugs once a day.

human lung cancer H460 = conditions: mouse, in vivo
Protocol: (§2) Taking a certain amount of vigorously growing tumor tissue, grinding the tumor tissue under sterile conditions and preparing cell suspension at the concentration of 1×10^7 cells/ml; then hypodermicaly inoculating 0.1 ml of the cell suspension into the right axillary region of nude mice. Keeping measuring the diameter of the transplanted tumor with a vernier caliper, and randomly dividing the mice into groups when the volume of the tumor reached 100-200 mm^3. Observing the dynamic effect of integrin-blocking polypeptides on inhibiting the growth of the tumor by means of documenting the change of tumor diameters. Measuring the tumor diameter once every other day and recording the body weight of mice simultaneously. Intravenously injecting polypeptides to mice from test groups while administering equal quantity of physiological saline to mice from the negative control group. The total medication period was 14 days. Avastin was adopted to set up a positive control group; it was administered through the tail vein once every three days while all other drugs were administered through the tail vein once a day. Leaving mice for a one-week rest after 14 days' medication, then (21 days after medication) killing the mice, surgically dissecting the tumors and measuring the weight of tumors. The tumor volume (TV) was calculated in accordance with the following formula: TV=½×a×b^2
(§3) Taxol used in the positive control group was administered once every 3 days through tail vein injection, while drugs of all other groups were administered on daily basis through tail vein injection.

[1] = test system: human thyroid cancer SW-579; type: in vivo, nude mice; conditions: mouse, in vivo
Protocol: (§4) Taking a certain amount of vigorously growing tumor tissue, grinding the tumor tissue under sterile conditions and preparing cell suspension at the concentration of 1×10^7 cells/ml; then hypodermicaly inoculating 0.1 ml of the cell suspension into the right axillary region of nude mice. Keeping measuring the diameter of the transplanted tumor with a vernier caliper, and randomly dividing the mice into groups when the volume of the tumor reached 100-200 mm^3. […] Measuring the tumor diameter once every other day and recording the body weight of mice simultaneously. Intravenously injecting polypeptides to mice from test groups while administering equal quantity of physiological saline to mice from the negative control group. The total medication period was 14 days. Avastin was adopted to set up a positive control group; it was administered through the tail vein once every three days while all other drugs were administered through the tail vein once a day. Leaving mice for a one-week rest after 14 days' medication, then (21 days after medication) killing the mice, surgically dissecting the tumors and measuring the weight of tumors. The tumor volume (TV) was calculated in accordance with the following formula: TV=½×a×b^2

[2] = test system: human prostate cancer DU-145; type: in vivo, nude mice; conditions: mouse, in vivo
Protocol: as §4

[3] = type: in vivo, nude mice; conditions: mouse, in vivo
Text: (§1) The total medication period was 14 days.

sarcoma HT-1080 = type: in vivo, nude mice; conditions: mouse, in vivo
Text: as §1

[4] = test system: human esophageal cancer Ec109; type: in vivo, nude mice
Text: as §1

[5] = test system: human testicular cancer 5637; type: in vivo, nude mice; conditions: mouse, in vivo
Text: as §1

[6] = test system: human laryngeal cancer Hep-2; test: heterotransplanted human laryngeal cancer Hep-2 in nude mice; type: in vivo
Text: as §1

[7] = test system: human pancreatic cancer SW-1990; test: heterotransplanted human pancreatic cancer SW-1990 in nude mice; type: in vivo
Text: as §1

[8] = test system: human gastric cancer MGC-803; conditions: mouse, in vivo
Text: Keeping measuring the diameter of the transplanted tumor with a vernier caliper, and randomly dividing the mice into groups when the volume of the tumor reached 100-200 mm^3. Observing the dynamic effect of integrin-blocking polypeptides on inhibiting the growth of the tumor by means of documenting the change of tumor diameters. Measuring the tumor diameter once every other day and recording the body weight of mice simultaneously. Intravenously injecting polypeptides to mice from test groups while administering equal quantity of physiological saline to mice from the negative control group. The total medication period was 14 days. Avastin was adopted to set up a positive control group; it was administered through the tail vein once every three days while all other drugs were administered through the tail vein once a day. Leaving mice for a one-week rest after 14 days' medication, then (21 days after medication) killing the mice, surgically dissecting the tumors and measuring the weight of tumors. The tumor volume (TV) was calculated in accordance with the following formula: TV=½×a×b^2

[9] = test system: human cervical cancer HeLa; type: in vivo, nude mice; conditions: mouse, in vivo
Protocol: as §4

human colon cancer HT-29 = type: in vivo, nude mice; conditions: mouse, in vivo
Protocol: as §4

[10] = test system: human ovarian cancer SK-OV-3; type: in vivo, nude mice; conditions: mouse, in vivo
Protocol: as §4

[11] = test system: human bladder cancer HT1376; test: heterotransplanted human bladder cancer HT1376 in nude mice; type: in vivo
Text: as §1

[12] = test system: human breast cancer MDA-MB-231; conditions: mouse, in vivo
Protocol: as §2
(§5) wherein a, b refer to the length and width of the tumor respectively.
(§6) The relative tumor volume (RTV) can be calculated in accordance with the results of measurement, using the formula: RTV=Vt/V0, wherein V0 refers to the initial tumor volume measured on the date starting medication (namely d0) while Vt the tumor volume obtained through every measurement. The anti-tumor activity was evaluated by relative proliferation rate T/C (%), which was calculated in accordance with the following formula:
(§7) wherein TRTV refers to the RTV of experimental groups; CRTV refers to the RTV of the negative control group.

[13] = test system: human liver cancer SMMC-7721; conditions: mouse, in vivo
Protocol: as §2, §3

human renal cancer A498 = type: in vivo, nude mice; conditions: mouse, in vivo
Protocol: as §4

[14] = test system: human gallbladder cancer GBC-SD; conditions: mouse, in vivo
Protocol: as §2
(§8) Avastin used in the positive control group was administered once every 2 days through tail vein injection, while drugs of all other groups were administered on daily basis through tail vein injection.

human brain tumor SF763 = conditions: mouse, in vivo
Protocol: as §2, §3

[15] = test system: human rectal cancer Colo 320; conditions: mouse, in vivo
Protocol: as §2, §3

[16] = test system: human endometrial cancer HHUA; conditions: mouse, in vivo
Protocol: as §2, §3

[17] = test system: human gallbladder cancer GBC-SD; test: heterotransplanted human gallbladder cancer GBC-SD in nude mice
Protocol: as §2, §8

[18] = test system: human breast cancer MDA-MB-231; test: heterotransplanted human breast cancer MDA-MB-231 in nude mice; conditions: 10 mg/kg/time, tail vein once every three days
Protocol: as §2, §5, §6, §7

[19] = 15 mg/kg/time once every other day, hypodermic, 14 days
[20] = 10 mg/kg/time, once every 2 days, tail vein injection
[21] = 10 mg/kg/time, once every 3 days, tail vein injection
[22] = positive control, tail vein once every 3 days
[23] = avastin 10 mg/kg/time, once every 3 days, tail vein injection

Compound: O=P1(N(CCCl)CCCl)NCCCO1 (stereo not shown) [cyclophosphamide]
- final weight (melanoma B16F10; [19]): 17.3 ± 1.5 g
- tumor inhibition rate (melanoma B16F10; [19]): 64.95%
- tumor weight (melanoma B16F10; [19]): 1.40 ± 0.06 g

Compound: FQPVLHLVALNSPLSGGMRGIRGADFQCFQQARAVGLAGTFRAGGGGRGD [polypeptide III]
- body weight of animals, in words (human lung cancer H460): no significant change in body weight
- toxic and side effects, in words (human lung cancer H460): no obvious toxic and side effects
- body weight of animals, in words [1]: no significant change in body weight
- toxic and side effects, in words [1]: no obvious toxic and side effects
- body weight of animals, in words [2]: no significant change in body weight
- toxic and side effects, in words [2]: no obvious toxic and side effects
- body weight of animals, in words [3]: no significant change in body weight
- body weight of animals, in words (sarcoma HT-1080): no significant change in body weight
- toxic and side effects, in words (sarcoma HT-1080): no obvious toxic and side effects
- final weight (sarcoma HT-1080; 0.1875 mg/kg): 22.92 ± 0.57 g
- final weight (sarcoma HT-1080; 0.375 mg/kg): 23.18 ± 0.57 g
- final weight (sarcoma HT-1080; 0.75 mg/kg): 23.07 ± 0.56 g
- body weight of animals, in words ([4]; mouse, in vivo): no significant change in body weight
- toxic and side effects, in words ([4]; mouse, in vivo): no obvious toxic and side effects
- toxic and side effects, in words [5]: no obvious toxic and side effects
- body weight of animals, in words ([6]; mouse, in vivo): no significant change in body weight
- toxic and side effects, in words ([6]; mouse, in vivo): no obvious toxic and side effects
- final weight ([6]; mouse, in vivo, 0.1875 mg/kg): 22.94 ± 0.46 g
- final weight ([6]; mouse, in vivo, 0.375 mg/kg): 22.96 ± 0.57 g
- final weight ([6]; mouse, in vivo, 0.75 mg/kg): 23.18 ± 0.51 g
- body weight of animals, in words ([7]; mouse, in vivo): no significant change in body weight
- toxic and side effects, in words ([7]; mouse, in vivo): no obvious toxic and side effects
- body weight of animals, in words [8]: no significant change in body weight
- toxic and side effects, in words [8]: no obvious toxic and side effects
- body weight of animals, in words [9]: no significant change in body weight
- toxic and side effects, in words [9]: no obvious toxic and side effects
- body weight of animals, in words (human colon cancer HT-29): no significant change in body weight
- toxic and side effects, in words (human colon cancer HT-29): no obvious toxic and side effects
- body weight of animals, in words [10]: no significant change in body weight
- toxic and side effects, in words [10]: no obvious toxic and side effects
- final weight ([10]; 0.1875 mg/kg): 22.83 ± 0.50 g
- final weight ([10]; 0.375 mg/kg): 22.92 ± 0.70 g
- final weight ([10]; 0.75 mg/kg): 22.95 ± 0.64 g
- body weight of animals, in words (melanoma B16F10; mouse, in vivo): no severe weight change
- toxic and side effects, in words (melanoma B16F10; mouse, in vivo): no severe weight change or obvious toxic and side effects
- body weight of animals, in words ([11]; mouse, in vivo): no significant change in body weight
- toxic and side effects, in words ([11]; mouse, in vivo): no obvious toxic and side effects
- body weight of animals, in words [12]: no significant change in body weight
- toxic and side effects, in words [12]: no obvious toxic and side effects
- body weight of animals, in words [13]: no significant change in body weight
- toxic and side effects, in words [13]: no obvious toxic and side effects
- body weight of animals, in words (human renal cancer A498): no significant change in body weight
- toxic and side effects, in words (human renal cancer A498): no obvious toxic and side effects
- body weight of animals, in words [14]: no significant change in body weight
- toxic and side effects, in words [14]: no obvious toxic and side effects
- body weight of animals, in words (human brain tumor SF763): no significant change in body weight
- toxic and side effects, in words (human brain tumor SF763): no obvious toxic and side effects
- final weight (human brain tumor SF763; 0.1875 mg/kg): 23.31 ± 0.57 g
- final weight (human brain tumor SF763; 0.375 mg/kg): 23.37 ± 0.56 g
- final weight (human brain tumor SF763; 0.75 mg/kg): 23.09 ± 0.53 g
- body weight of animals, in words [15]: no significant change in body weight
- toxic and side effects, in words [15]: no obvious toxic and side effects
- final weight ([15]; 0.1875 mg/kg): 22.81 ± 0.60 g
- final weight ([15]; 0.375 mg/kg): 22.93 ± 0.56 g
- final weight ([15]; 0.75 mg/kg): 23.14 ± 0.48 g
- body weight of animals, in words [16]: no significant change in body weight
- toxic and side effects, in words [16]: no obvious toxic and side effects

Compound: avastin: Avastin was adopted to set up a positive control group [reference compound]
- tumor inhibition rate [17, 20]: 78.85%
- tumor weight [17, 20]: 0.25 ± 0.06 g
- inhibition rate on tumor ([17]; positive control, tail vein once every 2 days): 78.85%
- tumor inhibition rate [4, 21]: 69.00%
- tumor weight [4, 21]: 0.47 ± 0.10 g
- body weight of animals, in words ([4]; mouse, in vivo): no significant change
- inhibition rate on tumor [4, 22]: 69.00%
- tumor inhibition rate [6, 23]: 76.79%
- tumor weight [6, 23]: 0.26 ± 0.06 g
- body weight of animals, in words ([6]; mouse, in vivo): no significant change
- inhibition rate on tumor [6, 22]: 76.79%
- tumor inhibition rate [7, 21]: 79.07%
- tumor weight [7, 21]: 0.27 ± 0.07 g
- body weight of animals, in words ([7]; mouse, in vivo): no significant change
- inhibition rate on tumor [7, 22]: 79.07%
- tumor inhibition rate [11, 21]: 79.60%
- tumor weight [11, 21]: 0.24 ± 0.06 g
- body weight of animals, in words ([11]; mouse, in vivo): no significant change
- inhibition rate on tumor [11, 22]: 79.60%
- body weight of animals, in words [12]: no obvious change
- tumor weight [18]: 0.26 ± 0.08 g
- body weight of animals, in words [14]: no significant change
